# Reference: patent publication US20190233884A1 (University of Southern California, priority 2016, published 2019)
# Tested on: patients with refractory metastatic colorectal cancer (mCRC)
# Assay: TAS-102-related toxicity (neutropenia, leukopenia, anemia, anorexia, nausea, diarrhea; CTCAE grade) in training/evaluation and testing/validation cohorts, association with SNPs
# Assay type: in vivo, human
# Conditions: for frequency of Gr3≤ neutropenia: evaluation cohort; for incidence of Gr3≤ neutropenia: validation cohort
# Text: Such effects include but are not limited to febrile neutropenia, leukopenia, stomatitis, neutropenia, hand-foot syndrome, cardiac ischemia, thrombocytopenia, increase in alanine aminotransferase level, increase in aspartate aminotransferase level, increase in total bilirubin, increase in alkaline phosphatase level, increase in creatinine level, anemia, anorexia, nausea, vomiting, decreased appetite, fatigue, abdominal pain, fever, asthenia, and diarrhea. […] “Subchronic” toxicity is the ability of a drug substance to cause harmful or adverse effects for […] but less than the lifetime of the exposed organism. “Chronic” toxicity is the ability of a drug substance or combination therapy to cause harmful effects over an extended period, usually upon repeated or continuous exposure, sometimes lasting for the entire life of the exposed organism. Adverse events are classified and graded by severity. Grade 1 adverse events: mild; asymptomatic or mild symptoms; clinical or diagnostic observations only; intervention not indicated. Grade 2 adverse events: moderate; minimal, local or noninvasive intervention indicated; limiting age-appropriate instrumental activities of daily living (ADL). Grade 3 adverse events: severe or medically significant but not immediately life-threatening; hospitalization or prolongation of hospitalization indicated; disabling; limiting self care activities of daily living. Grade 4 adverse events: life-threatening consequences; urgent intervention indicated. Grade 5 adverse event: death related to AE (Department of Health and Human Services, National Institutes of Health, National Cancer Institute. Common terminology criteria for adverse events (CTCAE) v4.03. 2010).
# The primary endpoint in this study was progression-free survival (PFS), and the secondary endpoints were overall survival (OS) and disease control rate (DCR). PFS was calculated from the date of starting treatment to the first observation of disease progression or death from any cause. If a patient had no disease progression or death, PFS was censored at the date of last follow up. OS was calculated from the date of starting treatment until the date of death from any cause or the date of the last follow-up, at which point OS was censored. The disease control rate (DCR) was defined as the proportion of patients who achieved a stable disease (SD) or […] according to RECISTv1.1. Chi-square test was used to examine the difference in baseline patient characteristics among the three cohorts. Allelic distribution of all SNPs by ethnicity for deviation from Hardy-Weinberg equilibrium and the allelic frequencies of SNPs were tested using the Chi-square tests with one degree of freedom. The associations between candidate SNPs and disease control, and toxicities were examined using contingency tables and Fisher's exact test. The associations of SNPs with PFS and OS were analysed using Kaplan-Meier curves and the log-rank test. Because the true mode of inheritance of candidate SNPs was not established yet, a codominant or dominant genetic model if appropriate was considered.
# All patients underwent the treatment in salvage-line setting. […] In all patients, adverse events were graded according to the Common Terminology Criteria for Adverse Events, version 4.0.
# The primary endpoint in this study was progression-free survival (PFS), and the secondary endpoints were overall survival (OS) and disease control rate (DCR). […] Data of patients without disease progression or death were censored at the date of last follow up. OS was calculated from the date of starting treatment until the date of death from any cause. In patients who were lost to follow-up, data were censored at the date of last follow up. The disease control rate (DCR) was defined as the proportion of patients who achieved a stable disease (SD) or […] according to RECIST v1.1.
substance,measurement,setting,value
Trifluridine/tipiracil [TAS-102],frequency of Gr3≤ neutropenia,ATM rs609429 C/C (n=4/14),29%
same,frequency of Gr3≤ neutropenia,ATM rs609429 any G allele (n=16/38),42%
same,incidence of grade 2≤ neutropenia,training cohort,61.5%
same,incidence of grade 3≤ neutropenia,training cohort,38.5%
same,frequency of Gr2< neutropenia,"training cohort, hENT1 rs760370 A/A (n=12/27)",44%
same,frequency of Gr2< neutropenia,"training cohort, hENT1 rs760370 any G allele (n=20/25)",80%
same,treatment delay caused by neutropenia,"training cohort, share of treatment delays (22/24)",91.8%
same,incidence of Gr3≤ neutropenia,ATM rs609429 C/C (n=13/51),26%
same,incidence of Gr3≤ neutropenia,ATM rs609429 any G allele (n=34/78),44%
